Assay results reported in patent publication US7880021B2, “Compounds and kits for the detection and the quantification of cell apoptosis” (Centre National de la Recherche Scientifique (CNRS), priority 2005, dated 2011).

Columns and labels:
T lymphoblastoid cells = test: Flow cytometry analysis with annexin V-FITC, PI and F2N12S; type: cell-based, human
From the text: FIG. 6: Flow cytometry analysis of T lymphoblastoid cells treated by actinomycin D. Cells were stained by annexin V-FITC, PI and F2N12S. In (a), Annexin V-FITC and PI were selectively excited at 488 nm. Cells are sorted into living, dead and apoptotic cell populations. In (b), F2N12S is selectively excited at 407 nm. Living cells are discriminated from apoptotic and necrotic cells. In (c), the PI fluorescence intensities are plotted versus the T*/N* ratio of F2N12S. Living cells are in green, apoptotic cells are in cyan and dead cells are in orange. In (d), the populations sorted using the F2N12S/PI couple were colored according to their response with the annexin V/PI couple. The wavelengths of maximal transmission and bandwidths of used filters are indicated in brackets.
FIG. 7: Comparison of the intensiometric response of annexin V-FITC (a) with the ratiometric fluorescence response of F2N12S (b). Living, dead and apoptotic cells were identified as described in FIG. 6, by using either the annexin V-FITC/PI (a) or the F2N12S/PI (b) couple of dyes.
FIG. 8: Comparison of the response of annexin V-FITC and F2N12S on non-treated T lymphoblastoid cells stained by annexin V-FITC, PI and F2N12S. In (a), annexin V-FITC and PI were selectively excited at 488 nm. In (b), F2N12S is selectively excited at 407 nm. Cells are sorted into living and dead cell populations.
Human lymphoid CEM T cells were cultured in X-vivo 15 medium (Cambrex, France) at 37° C. in humidified 5% CO2 atmosphere. Cell viability was checked by trypan blue exclusion. Cells were seeded at 5×10^5 cells/ml in the presence or absence of actinomycin D (0.5 μg/ml) for 18 h. Cells were pelleted by centrifugation at 1500 rpm for 5 min and resuspended at 1×10^6 cells/ml in X-vivo 15 medium for experiments.
For the validation of F2N12S in cell cytometry, we used a FASCARIA™ (cell sorter) (BD Biosciences, CA, USA) equipped with an argon laser (488 nm) and a diode laser (407 nm) and emission filters DF30, DF42 and DF20 centered at 530 nm, 585 nm and 610 nm, respectively. The optical pathways corresponding to the argon laser and to the diode laser are independent. Data were analyzed using the FACSDIVA™ (cell sorter) Software (BD Biosciences). The granulation, size and fluorescence intensity were recorded at a rate of ˜1000 cells per second.
T lymphoblastoid cells were treated with actinomycin D and labeled simultaneously by FITC-labeled annexin V, propidium iodide (PI) and F2N12S. […] The emissions of FITC and PI were collected in the spectral regions of 515-545 nm and 600-620 nm, respectively. […] The emission light in this case was collected in two spectral regions: at 515-545 nm to monitor the emission of the N* band and 564-606 nm to collect the emission of the T* band (FIG. 6b). […] The second one is characterized by a high N*/T* intensity ratio (shown in red) and can be assigned to apoptotic and dead cells.
(§1) The probe of the invention F2N12S has been combined with PI and the fluorescence intensities of PI have been represented as a function of the T*/N* ratio of F2N12S (FIG. 6c). In this case, the populations of apoptotic and dead cells are clearly discriminated by using the differences in the PI intensities. […] This conclusion was further strengthened when the populations discriminated by the F2N12S/PI couple were colored according to their response with the annexin V-FITC/PI couple (FIG. 6d).

HeLa cells = test: Flow cytometry F2N12S intensity ratio in HeLa cells; type: cell-based; details: data not shown
From the text: as §1

CEM T cells = test: Emission spectra in living and apoptotic cell suspensions, and Ca2+ dependence; type: cell-based, human
Experimental: FIG. 3: Emission spectra of the probe F2N12S in living (solid line) and apoptotic (dash line) CEM cells. Excitation wavelength was 400 nm. Final probe concentration was 0.1 μM.
FIG. 4: Ca^2+ dependence of F2N12S emission spectra in apoptotic CEM cells. The excitation wavelength was 400 nm. The spectra were recorded at Ca^2+ concentrations of 0.2, 0.4, 0.8, 1.2 and 2 mM and normalized. Final probe concentration was 0.1 μM.
Human lymphoid CEM T cells were cultured in X-vivo 15 medium (Cambrex, France) at 37° C. in humidified 5% CO2 atmosphere. Cell viability was checked by trypan blue exclusion. Cells were seeded at 5×10^5 cells/ml in the presence or absence of actinomycin D (0.5 μg/ml) for 18 h. […]
The cells were washed twice by HBSS before each experiment to eliminate fetal bovine serum. […] For fluorescence measurements with the probe of the invention F2N12S (fluorometry, flow cytometry and confocal microscopy), cells were resuspended in HBSS with 0.1 μM F2N12S. […] The staining pattern of the cells was checked with a Confocal Imaging System MRC-1024 (BioRad) to ascertain that fluorescence originates from the plasma membrane.
Fluorescence spectra were recorded on a FLUOROMAX-3® (spectrofluorometer) (JobinYvon Horiba). The excitation wavelength for fluorescence emission spectra of F2N12S probes was 400 nm. […]

[1] = actinomycin D-treated cells, probe combined with PI

Substance: 1-dodecanaminium, N-[[2-[4-Diethylaminophenyl]-3-hydroxychromon-6-yl]-methyl]-N-methyl-N-(3-sulfopropyl)-, inner salt [F2N12S]
- percentage of apoptotic cells (T lymphoblastoid cells; [1]): 19.5%
- percentage of dead cells (T lymphoblastoid cells; [1]): 48%
- percentage of living cells (T lymphoblastoid cells; [1]): 32.5%
- percentage of dead cells (T lymphoblastoid cells; non-treated T lymphoblastoid cells): 5%
- F2N12S intensity ratio values compared with T lymphoblastoid cells (HeLa cells): very similar
- relative intensity of the short-wavelength band, apoptotic versus living cells (CEM T cells; actinomycin D-induced apoptosis, cells sorted with FITC-annexin, excitation 400 nm, probe 0.1 μM): ~2 fold
- dependence of the response on Ca2+ concentration (CEM T cells; apoptotic cells, Ca2+ 0-2 mM): insensitive
